Experimental data published in PMC4278708, “A Convenient Method for the Synthesis of (Prop-2-Ynyloxy)Benzene Derivatives via Reaction with Propargyl Bromide, Their Optimization, Scope and Biological Evaluation” (PLoS ONE, 2014).
In brackets after ≈: the same amount, converted by molar mass. Read-outs that look alike come from different tables or passages of the source.

How the values were obtained:
[1] = tested on: Staphylococcus aureus; experiment: Antibacterial activity, disc diffusion method; type: cell-based; conditions: for IC50 / inhibition at 40 µg/mL / inhibition at 100 µg/mL: Staphylococcus aureus; for IC50: read-out: Staphylococcus aureus IC50 ug/ml; for inhibition at 40 µg/mL: read-out: Staphylococcus aureus 40 ug/ml (percentage inhibition); for inhibition at 100 µg/mL: read-out: Staphylococcus aureus 100 ug/ml (percentage inhibition)
From the text: (§1) Disc diffusion method was adopted to test the antibacterial activity of synthesized compounds 2a-10 against […] different bacterial strains. Ampiciline was used as positive control to check antibacterial activity of synthesized compounds. The bacterial strains employed were: Escherichia coli, Bacillus subtillus, Shigella flexneri, Staphylococcus aureus, Pseudomonas aeroginosa and Salmonella typhi.
(§2) Disc diffusion method was used for the determination of antibacterial activity. synthetic organic compounds were examined to evaluate their antibacterial potential against four different strains of bacteria i.e. Staphlococcus aureus (Gram + ive), Pseudomonas- aeroginosa (Gram−ive) and Escherichia coli (Gram−ive), Bacillus subtilis (Gram + ive), Salmonella typhi (Gram−ive) and Shigella flexneri (−ive). The synthetic organic compounds were dissolved in an appropriate solvent to get the solution of known concentration (5 µg/µl or 10 µg/µl). In order to prepare discs of different potencies known volume of extract/synthetic organic compound solution was applied on the discs, air dried and used. After preparation of the sterilized nutrient agar and nutrient broth medium, the sterilized nutrient agar medium was poured under aseptic conditions into sterile glass petri dishes/plates. A known volume of bacterial growth culture can also be poured on the surface of agar medium solidified in petri dishes. After inoculation petri plates were kept at room temperature for 15–30 minutes so that the poured medium is adsorbed. All the discs, including test sample, +ive and –ve controls were placed onto the inoculated nutrient agar medium solidified in petri dishes with the help of sterile forceps and incubated the petri plates at 37°C±2°C for 16–24 hours. Zone of inhibition was measured in mm using ordinary scale. Experiment was repeated three times to get the SD values.

[2] = tested on: Bacillus subtillus; experiment: Antibacterial activity, disc diffusion method; type: cell-based; conditions: for inhibition at 100 µg/mL: 100 ug/ml, read-out: Bacillus subtillus 100 ug/ml (percentage inhibition); for IC50: read-out: Bacillus subtillus IC50 ug/ml
From the text: as §1, §2

[3] = molecular target: urease enzyme (Canavalia ensiformis, UniProt P07374); experiment: biochemical; type: biochemical; conditions: for inhibition at 50 µg/mL: read-out: Percentage inhibition at 50 ug/mL; for inhibition at 100 µg/mL: read-out: Percentage inhibition at 100 ug/mL
urease enzyme, sequence (P07374 whole entry, looked up): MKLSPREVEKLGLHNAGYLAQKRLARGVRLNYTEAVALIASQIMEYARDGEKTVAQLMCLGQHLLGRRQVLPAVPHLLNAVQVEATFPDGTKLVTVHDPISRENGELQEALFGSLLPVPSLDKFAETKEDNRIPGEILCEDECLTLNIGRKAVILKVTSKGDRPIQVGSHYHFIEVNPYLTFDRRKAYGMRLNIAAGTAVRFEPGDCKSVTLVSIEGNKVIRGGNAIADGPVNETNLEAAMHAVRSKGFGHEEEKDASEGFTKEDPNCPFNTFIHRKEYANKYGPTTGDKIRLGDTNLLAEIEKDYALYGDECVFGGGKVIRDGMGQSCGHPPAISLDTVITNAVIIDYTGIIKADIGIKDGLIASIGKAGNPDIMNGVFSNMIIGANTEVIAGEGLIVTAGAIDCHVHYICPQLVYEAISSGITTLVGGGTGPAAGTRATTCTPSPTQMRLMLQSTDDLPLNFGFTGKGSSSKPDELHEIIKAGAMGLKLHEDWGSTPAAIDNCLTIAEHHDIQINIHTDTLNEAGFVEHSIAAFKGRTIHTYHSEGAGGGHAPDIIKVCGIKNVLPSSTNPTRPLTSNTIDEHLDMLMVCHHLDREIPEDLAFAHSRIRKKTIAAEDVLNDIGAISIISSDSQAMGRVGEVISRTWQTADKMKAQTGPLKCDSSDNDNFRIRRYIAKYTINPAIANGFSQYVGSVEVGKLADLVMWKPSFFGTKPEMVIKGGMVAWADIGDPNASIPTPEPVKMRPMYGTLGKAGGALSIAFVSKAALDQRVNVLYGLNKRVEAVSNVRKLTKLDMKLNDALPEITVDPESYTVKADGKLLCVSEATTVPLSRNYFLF
Procedure: Antiurease activity of the synthesized compounds was determined by using the modified phenol-hypochlorite method. Varying concentrations were used to prepare the urease inhibition curve of Thiourea (a known inhibitor of Urease) in the reaction mixture. Phosphate buffer solution of pH 7 containing 1 unit of enzyme was added about 200 µl in the test tube which was followed by the addition of 230 µl of phosphate buffer and 20 µl of thiourea from a scrupulous stock solution for the particular concentration of thiourea in the reaction mixture respectively. Test sample solutions were added instead of thiourea solution in case of test samples. The reaction mixture were mixed and incubated at 25°C for 5 min. 400 µl of urea stock (20 mM) was added in each test tube. In order to allow the action of urease on urea, all the test tubes were incubated at 40°C.
Phenol hypochlorite reagent (1150 µl) was added after 10 min incubation at 40°C. Test tubes were again incubated at 56°C for 25 min. A blue coloured complex was formed in the reaction mixture. The samples were allowed to cool for 5 min and then their absorbance values were measured at 625 nm and the %age inhibition was calculated. Experiment was repeated three times to get the SD values.

[4] = Nitric oxide (NO) scavenging activity (sodium nitropruside / Griess reagent); conditions: for IC50: NO scavenging; for Percentage scavenging activity at 50 ug/ml / Percentage scavenging activity at 100 ug/ml: NO
Procedure: Solutions of known concentration were prepared by dissolving the synthesized compounds in appropriate solvents. A mixture of sample solution (20 µl), 10 mM sodium nitropruside solution (200 µl) and phosphate buffer of 7.4 pH (1780 µl) was taken in a dry test tube and the mixture was incubated at 37°C for 2 hours. 200 µl Griess reagent (0.3% Sulphanilic acid in glacial acetic acid, 0.1% Naphthyl ethylene diamine HCL (NED): Mixed equal volume of both solutions just before use) was added after the incubation period is over. After 20 min keeping the solution at room temperature, its absorbance at 528 nm was measured. Each sample was analyzed in triplicate. Positive control of any known antioxidant and control of all samples were run in parallel. Use of negative control was to calibrate the instrument. Sample blanks were also prepared in case if the samples were coloured. Correction in the absorbance values was made by subtracting the sample blank reading from the sample reading.

Row | Molecule | activity against Staphylococcus aureus (in words) [1] | inhibition at 40 µg/mL [1] [%] | inhibition at 100 µg/mL [1] [%] | IC50 [3] [µM] | inhibition at 50 µg/mL [3] [%] | inhibition at 100 µg/mL [3] [%] | IC50 [4] [µg/mL] | Percentage scavenging activity at 50 ug/ml [4] [%] | Percentage scavenging activity at 100 ug/ml [4] [%] | also measured
1 | C#CCOc1ccc(C(C)(C)c2ccc(OCC#C)cc2)cc1 [Compound 4a, 4,4′-(propane-2,2-diyl)bis((prop-2-ynyloxy)benzene)] | moderate activity | 29.1 ± 0.6 | 50 ± 0.2 | 205 | 37 ± 0.34 | 89.42 ± 0.05 | 64.4 (≈ 212 µM) | 40±0.09 | 74.53±0.13 | IC50 [1]: 97.7 µg/mL (≈ 321 µM); activity against Bacillus subtillus (in words) [2]: inactive; inhibition at 100 µg/mL ([2]; Bacillus): 33.9 ± 0.45%
2 | C#CCOc1cccc2ccccc12 [Compound 6a, 1-(prop-2-ynyloxy)naphthalene] | inactive | -1.85 | 10 ± 0.9 | 373 | 41.33 ± 0.41 | 65.3 ± 0.18 | 83 (≈ 455 µM) | 24.33±0.12 | 63.17±0.19 | IC50 ([2]; Bacillus): 92.6 µg/mL (≈ 508 µM)
3 | C#CCOc1ccc2ccccc2c1 [Compound 6b, 2-(prop-2-ynyloxy)naphthalene] | – | 21.4 ± 0.4 | 51 ± 0.3 | – | 32 ± 0.38 | 41.9 ± 0.313 | 76.16 (≈ 418 µM) | 33.33±0.1 | 65.19±0.18 | IC50 [1]: 98.3 µg/mL (≈ 539 µM); inhibition at 50 µg/mL ([2]; Bacillus, 50 ug/ml, read-out: Bacillus subtillus 50 ug/ml (percentage inhibition)): 39.06 ± 0.05%; inhibition at 100 µg/mL ([2]; Bacillus): 57.8 ± 0.26%; IC50 ([2]; Bacillus): 79.2 µg/mL (≈ 435 µM); urease inhibition activity (in words) ([3]; 50 and 100 µg/ml tested): did not show any satisfactory results
4 | C#CCNc1cccc2ccccc12 [Compound 8d, N-(prop-2-ynyl)naphthalen-1-amine] | – | 5.85 ± 0.8 | 31 ± 0.2 | 506 | 43 ± 0.42 | 51.5 ± 0.26 | – | 7.67±0.13 | 38.38±0.32 | nitric oxide scavenging activity (in words) [4]: did not show any significant results
5 | NC(N)=S [Thiourea, reference compound] | – | – | – | – | – | – | – | – | – | IC50 ([3]; urease): 23.3 µg/mL; Percentage inhibition at 20 ug/ml ([3]; urease, 20 ug/ml (positive control)): 47.1±0.31%; Percentage inhibition at 40 ug/ml ([3]; urease, 40 ug/ml (positive control)): 65±0.01%
6 | O=C1O[C@H]([C@@H](O)CO)C(O)=C1O [Vit.C control, Ascorbic acid, reference compound] | – | – | – | – | – | – | 50.43 (≈ 286 µM) | 38.5±0.16 | 84.1±0.12 | –
7 | N-(prop-2-ynyl)-4-(prop-2-ynyloxy)aniline [Compound 10] | moderate activity | – | – | – | – | – | 78.1 | 30±0.10 | 65.5±0.18 | Staphylococcus aureus IC50 [1]: 96.3 µg/mL; Staphylococcus aureus 40 ug/ml (percentage inhibition) ([1]; 40 ug/ml): 24.4±0.11%; Staphylococcus aureus 100 ug/ml (percentage inhibition) ([1]; 100 ug/ml): 52±0.1%; Bacillus subtillus IC50 [2]: 98.5 µg/mL; activity against Bacillus subtillus (in words) [2]: batter activity; Bacillus subtillus 50 ug/ml (percentage inhibition) ([2]; 50 ug/ml): 6.13±0.35%; IC50 ([3]; urease): 89.6 µg/mL; Percentage inhibition at 50 ug/mL ([3]; urease, 50 ug/mL): 25±0.45%; Percentage inhibition at 100 ug/mL ([3]; urease, 100 ug/mL): 56.5±0.234%
